In US9796700B2 (Celgene CAR LLC, priority 2013, dated 2017):
Where two headings read alike, the source gives them in different places.

Experiments:
Erk1 [1] = target: T1, Erk1 (Homo sapiens (Human), UniProt P27361); assay: Protein Mass Modification Assay (intact protein MALDI); assay type: binding
In short: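 Percent covalent modification comes from the intact-protein MALDI centroid mass shift, treated versus control, divided by compound MW. Before analysis, human Erk1 was exposed to compound at 10-fold excess over protein for 60 min at room temperature.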
Target sequence in this assay (P27361 whole entry, looked up): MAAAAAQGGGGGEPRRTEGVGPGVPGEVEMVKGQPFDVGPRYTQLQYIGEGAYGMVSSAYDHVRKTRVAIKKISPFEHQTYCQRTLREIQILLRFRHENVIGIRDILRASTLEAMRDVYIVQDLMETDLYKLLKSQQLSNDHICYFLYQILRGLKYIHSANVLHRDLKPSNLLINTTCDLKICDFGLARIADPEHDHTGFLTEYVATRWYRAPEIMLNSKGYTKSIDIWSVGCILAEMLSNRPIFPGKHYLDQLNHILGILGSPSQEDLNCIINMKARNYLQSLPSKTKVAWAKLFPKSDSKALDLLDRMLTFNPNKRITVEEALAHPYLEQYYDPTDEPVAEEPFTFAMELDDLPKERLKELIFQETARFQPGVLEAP

MEK1 activated ERK1 = MEK1 activated ERK1 (Homo sapiens (Human), UniProt P27361); assay: Omnia continuous-read kinase assay for potency against MEK1 activated ERK1; assay type: biochemical
In short: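 Apparent IC50 came from initial reaction slopes (RFU vs time) plotted against log inhibitor with a variable-slope fit. Reactions were started with ERK1 (4 nM final) added to 50 μM ATP, roughly at its appKM, and 10 μM Sox-conjugated ST17 peptide in 20 mM Tris pH 7.5, 5 mM MgCl2. Fluorescence was monitored every 71 seconds.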

[2] = system: ERK1 phosphorylation of its substrate RSK in HT29 cells; assay: pRSK MSD Assay in HT29 cells; assay type: cell-based; conditions: Homo sapiens, HT-29, HT29 cells; read-out: ERK1 PRSK MSD HT29 EC50
In short: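 HT29 cells were serum-starved overnight in 0.1% FBS, then treated with compound for 120 min at 37 °C. Lysates were assayed on MSD plates with RSK capture and phospho-RSK detection antibodies using electrochemiluminescence read-out.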

[3] = system: p-RSK (ERK activity) in cells after compound washout; assay: Measurement of duration of action of test compounds (pRSK after washout); assay type: cell-based; conditions: 6 hr after compound washout
Procedure: The protocol below describes an assay to measure the kinase activity of ERK1 to phosphorylate its substrate, RSK, in the presence of a test compound. This experiment was conducted using a Mesoscale Discovery plate. The day before the assay, HT29 cells were split and plated at 50,000 cells/well in complete growth media. After allowing cells to adhere, the media was removed and replaced with media containing 0.1% FBS and incubated overnight. Blank MDS plates were coated with 25 μl/well RSK capture antibody and incubated at 4° C. overnight. The next day, the media was removed and replaced with 100 μl of media containing a test compound and incubated for 120 minutes at 37° C. The media was removed and replaced with 55 μl of well lysis buffer with protease and phosphatase inhibitors provided in the kit, followed by incubation at 4° C. for 30 minutes. 50 μl of lysate was transferred to a blocked MSD plate, followed by incubation at room temperature for 2 hours under constant shaking. The plate was washed 3 times with MSD wash buffer (cat#R617TX), and 25 μl/well phospho-RSK (pRSK) detection antibody was added with an appropriate Sulfo-tagged anti-species detection antibody diluted in 1% BSA in MSD wash buffer. This mixture was incubated for 1 hour at room temperature under constant shaking. The plate was washed 3 times, and 150 μl 1×MSD read buffer was added, followed by signal detection in an MSD plate reader.
Measurement of Duration of Action of Test Compounds
One day before the assay, the cells were split and added at 50,000 cells per well in flat-bottom 96 well plate in 200 μl of growth media. The next day, the medium was discarded, 100 μl medium containing test compounds was added, and the plate was incubated at 37° C. for 120 minutes. The medium was discarded, and the cells were rinsed 3 times with PBS followed by addition of 200 μl of fresh grow medium. The plate was returned to a 37° C. incubator, and separate cell lysates were made using MSD lysis buffer after 0.25, 0.5, 1, 2, 4, 6, 8 and 18 or 24 hours. Thereafter, pRSK was measured as described above in the section entitled pRSK MSD Assay. The data is presented in Table A under the column titled “p-RSK inhibition at 6 hr (%).”

Erk1 [4] = target: T1, Erk1; assay: Measurement of Erk occupancy with biotinylated covalent probe I-299; assay type: cell-based; conditions: HT-29 cells
Procedure: Measurement of Erk Occupancy with Biotinylated Covalent Probe
This experiment measured occupancy of the ERK1 target by compounds according to the invention. This experiment was conducted using the Mesoscale Discovery test kit (Cat. #N45107B). One day before the assay, cells were split and added at 50,000 cells per well to a flat-bottom 96 well plate in 200 μl of growth medium. The next day, the medium was discarded, 100 μl medium containing test compound was added, and the plate was incubated at 37° C. for 120 minutes. The plate was rinsed once with PBS, and 50 μl lysis buffer with test compound was added. The plate was incubated at 4° C. for 30 min, and 30 μl of lysate was transferred to a plate to capture total and phosphor-Erk. Biotinylated probe I-299 was diluted in lysis buffer and added to each well to a final concentration of 0.2 μM. The plate was incubated for 2 hr under constant shaking at room temperature. The plate was washed 3 times with MSD wash buffer. To detect the biotinylated probe bonding, tagged streptavidin was added (MSD, Cat#R32AD-1) at 1 μg/ml, 25 μl/well, followed by a 60 min incubation under shaking. The plate was washed 3 times, 150 μl MSD Read Buffer (Cat#R61TX) was added and the plate was read in a plate reader manufactured by MSD. Percent occupancy by test compound at Erk was calculated by comparing the chemiluminescence readings from treated cells as compared to the chemiluminescence readings in untreated controls (which are defined as 100% probe bonding or 0% occupancy). The amount of covalent probe signal divided by the amount of ERK signal for samples with no test compound treatment represents the maximum probe signal (MPS). In samples treated with test compound prior to covalent probe, the ratio of probe signal to ERK signal (the test probe signal, TPS) was reduced by the degree of target occupancy by the test compound which blocks covalent probe binding. The difference between the MPS and the TPS, divided by the MPS gave the target occupancy by the test compound. This ratio was then expressed as a percent occupancy. Results from this assay are provided in Table A below under the column “Occupancy EC50 (nM) HT-29.”
Target sequence in this assay (P27361 2-379 limits assumed): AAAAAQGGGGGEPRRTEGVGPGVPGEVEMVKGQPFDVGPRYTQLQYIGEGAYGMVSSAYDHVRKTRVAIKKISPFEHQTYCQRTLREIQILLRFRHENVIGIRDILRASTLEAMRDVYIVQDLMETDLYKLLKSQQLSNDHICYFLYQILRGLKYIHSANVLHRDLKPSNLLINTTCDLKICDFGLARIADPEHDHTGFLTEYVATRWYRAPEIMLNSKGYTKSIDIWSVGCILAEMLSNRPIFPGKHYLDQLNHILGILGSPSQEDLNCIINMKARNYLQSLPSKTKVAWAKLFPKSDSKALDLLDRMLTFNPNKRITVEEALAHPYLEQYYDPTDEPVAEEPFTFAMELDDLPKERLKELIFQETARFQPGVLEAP

[5] = MEK1 activated ERK1, WT, ATP at KM

MEK1 activated ERK1, sequence (P27361 whole entry): as the sequence (P27361 whole entry, looked up) above

SMILES | ERK1 Mass Mod (%) (Erk1 [1]) | IC50 (MEK1 activated ERK1; [5]) | EC50 [2] | p-RSK inhibition at 6 hr (%) [3] | EC50 (Erk1 [4]) | IC50 (MEK1 activated ERK1; read-out: ERK1 Omnia WT ATP KM IC50)
C=CC(=O)Nc1ccccc1Nc1nc(N[C@H]2CCCN(C(=O)CO)C2)ncc1C(F)(F)F [Compound I-15, (S)—N-(2-((2-((1-(2-hydroxyacetyl)piperidin-3-yl)amino)-5-(trifluoromethyl)pyrimidin-4-yl)amino)phenyl)acrylamide] | E (provided a mass modification of ≧70%) | < 100 nM | < 100 nM | E (provided a p-RSK inhibition percent of ≧70%) |  | 
C=CC(=O)Nc1ccccc1Nc1nc(Nc2cc(C(N)=O)ccc2C)ncc1C(F)(F)F [Compound I-68, 3-(4-(2-Acrylamidophenylamino)-5-(trifluoromethyl)pyrimidin-2-ylamino)-4-methylbenzamide] | E (provided a mass modification of ≧70%) | < 100 nM |  | E (provided a p-RSK inhibition percent of ≧70%) | < 100 nM | 
C=CC(=O)Nc1cc(C)ccc1Nc1nc(Nc2cc(C(N)=O)ccc2C)ncc1C(F)(F)F [Compound I-79, 3-((4-((2-Acrylamido-4-methylphenyl)amino)-5-(trifluoromethyl)pyrimidin-2-yl)amino)-4-methylbenzamide] | E (provided a mass modification of ≧70%) |  |  | E (provided a p-RSK inhibition percent of ≧70%) |  | 
C=CC(=O)Nc1ccccc1Nc1nc(Nc2cc(OC)ncc2C)ncc1C(F)(F)F [Compound I-85, N-(2-((2-((2-Methoxy-5-methylpyridin-4-yl)amino)-5-(trifluoromethyl)pyrimidin-4-yl)amino)phenyl)acrylamide] | G (proived a mass modification ≦30%) | 101 to 500 nM |  | E (provided a p-RSK inhibition percent of ≧70%) |  | 
C=CC(=O)Nc1ccccc1Nc1nc(Nc2cncc(OC)c2)ncc1C(F)(F)F [Compound I-86, N-(2-((2-((5-Methoxypyridin-3-yl)amino)-5-(trifluoromethyl)pyrimidin-4-yl)amino)phenyl)acrylamide] |  | < 100 nM |  | E (provided a p-RSK inhibition percent of ≧70%) |  | 
C=CC(=O)Nc1cc(C)ccc1Nc1nc(N[C@H]2CCCN(C(=O)CO)C2)ncc1Cl [Compound I-140, (S)—N-(2-((5-chloro-2-((1-(2-hydroxyacetyl)piperidin-3-yl)amino)pyrimidin-4-yl)amino)-5-methylphenyl)acrylamide] | E (provided a mass modification of ≧70%) | < 100 nM |  | F (provided a p-RSK inhibition percent of 31-69%) |  | 
C=CC(=O)Nc1cc(F)ccc1Nc1nc(Nc2cc(C(N)=O)ccc2C)ncc1Cl [Compound I-206, 3-((4-((2-acrylamido-4-fluorophenyl)amino)-5-chloropyrimidin-2-yl)amino)-4-methylbenzamide] | E (provided a mass modification of ≧70%) | < 100 nM |  |  | < 100 nM | 
C=CC(=O)Nc1ccccc1Nc1nc(Nc2ccc(F)cc2C#N)ncc1Cl [Compound I-211, N-(2-((5-chloro-2-((2-cyano-4-fluorophenyl)amino)pyrimidin-4-yl)amino)phenyl) acrylamide] | F (provided a mass modification of 31-69%) | < 100 nM |  |  | < 100 nM | 
C=CC(=O)Nc1cc(F)ccc1Nc1nc(Nc2ccc(F)cc2C)ncc1Cl [Compound I-212, N-(2-((5-chloro-2-((4-fluoro-2-methylphenyl)amino)pyrimidin-4-yl)amino)-5-fluorophenyl)acrylamide] | F (key: E: provided a mass modification of ≧70%; F: provided a mass modification of 31-69%; G: proived a mass modification ≦30%) |  |  |  | < 100 nM | < 100 nM
C=CC(=O)Nc1ccccc1Nc1nc(Nc2cc(C(N)=O)c(F)cc2C)ncc1Cl [Compound I-214, 5-((4-((2-acrylamidophenyl)amino)-5-chloropyrimidin-2-yl)amino)-2-fluoro-4-methylbenzamide] | F (provided a mass modification of 31-69%) | < 100 nM |  |  | < 100 nM | 
C=CC(=O)Nc1cc(C)ccc1Nc1nc(Nc2cc(C(N)=O)ccc2C)ncc1Cl [Compound I-229, 3-((4-((2-acrylamido-4-methylphenyl)amino)-5-chloropyrimidin-2-yl)amino)-4-methylbenzamide] | E (provided a mass modification of ≧70%) | < 100 nM |  | E (provided a p-RSK inhibition percent of ≧70%) |  | 
C=CC(=O)Nc1ccccc1Nc1nc(Nc2cc(OC)ncc2C)ncc1Cl [Compound I-240, N-(2-((5-chloro-2-((2-methoxy-5-methylpyridin-4-yl)amino)pyrimidin-4-yl)amino)phenyl)acrylamide] | E (provided a mass modification of ≧70%) | < 100 nM |  | E (provided a p-RSK inhibition percent of ≧70%) |  | 
C=CC(=O)Nc1cc(C)ccc1Nc1nc(Nc2cc(OC)ncc2C)ncc1Cl [Compound I-241, N-(2-((5-chloro-2-((2-methoxy-5-methylpyridin-4-yl)amino)pyrimidin-4-yl)amino)-5-methylphenyl)acrylamide] | E (provided a mass modification of ≧70%) | < 100 nM |  | E (provided a p-RSK inhibition percent of ≧70%) |  | 
C=CC(=O)Nc1cc(OC)ccc1Nc1nc(Nc2cc(OC)ncc2C)ncc1Cl [Compound I-242, N-(2-((5-chloro-2-((2-methoxy-5-methylpyridin-4-yl)amino)pyrimidin-4-yl)amino)-5-methoxyphenyl)acrylamide] | E (provided a mass modification of ≧70%) | < 100 nM |  | E (provided a p-RSK inhibition percent of ≧70%) |  | 
C=CC(=O)Nc1ccccc1Nc1nc(Nc2cc(C(N)=O)ccc2C)ncc1Cl [Compound I-319, 3-(4-(2-acrylamidophenylamino)-5-chloropyrimidin-2-ylamino)-4-methylbenzamide] | E (provided a mass modification of ≧70%) | < 100 nM |  |  | < 100 nM | 
